The text below walks through data of paper PMC4963390, “PL3 Amidase, a Tailor-made Lysin Constructed by Domain Shuﬄing with Potent Killing Activity against Pneumococci and Related Species” (Frontiers in Microbiology, 2016).

The target of this assay is T1, PL3.
T1 construct: gene pal
The following applies: read-out: apparent half-dissociation constant; 20 mM sodium phosphate, reducing conditions (pH 6.8 in the other assays); 20 °C; higher-affinity sites of a two-sigmoid fit (midpoint value); lower-affinity sites not listed.

SMILES strings stand for the structures.

Regarding `C[N+](C)(C)CCO` [choline], the Kd is 60 ± 9 µM.
